In ChEMBL document CHEMBL4482307 (2014):
Calls of active or inactive are those of the source. The rule behind the calls is not given here.

Key:
HL-60 [1] = assay: Antiproliferative activity against human HL60 cells assessed as reduction in cell proliferation incubated for 3 to 4 days by MTT assay; assay type: functional, cell-based
Daudi = assay: Antiproliferative activity against human Daudi cells assessed as reduction in cell proliferation incubated for 3 to 4 days by MTT assay; assay type: functional, cell-based
c-Myc/Max (Homo sapiens) [2] = molecular target: T1, c-Myc/Max (Homo sapiens) (UniProt P01106+P61244); assay: (§1) Inhibition of His6-tagged homogeneously purified recombinant Myc bHLH-LZ domain (unknown origin)/His6-tagged Max (151 residues) (unknown origin) interaction assessed as reduction in Myc/Max/DNA ternary complex formation using fluorescently-tagged (FAM) E-Box-containing double-stranded oligonucleotide at 100 uM by EMSA relative to control; assay type: protein-complex assay
[3] = Half life in plasma (unknown origin); assay type: ADME, cell-free
c-Myc/Max (Homo sapiens) [4] = molecular target: T1, c-Myc/Max (Homo sapiens); assay: Inhibition of Myc/Max protein interaction in human HL60 cells assessed as reduction in Myc/Max heterodimer formation at 1 to 12 uM by co-immunoprecipitation assay; assay type: cell-based
c-Myc/Max = c-Myc/Max (Homo sapiens, UniProt P01106); assay: as §1, with “oligonucleotide” for “oligonucleotide at 100 uM”; assay type: protein-complex assay
HL-60 [5] = assay: Induction of cell cycle arrest in human HL60 cells assessed as accumulation at G0/G1 phase incubated for 24 to 48 hrs by propidium iodide staining based flow cytometric analysis; assay type: functional
HL-60 [6] = assay: Induction of cell cycle arrest in human HL60 cells assessed as accumulation at G0/G1 phase at 5 uM incubated for 24 to 48 hrs by propidium iodide staining based flow cytometric analysis (reference value: 36%); assay type: functional
HL-60 [7] = assay: Induction of cell cycle arrest in human HL60 cells assessed as accumulation at G2/M phase at 5 uM incubated for 24 to 48 hrs by propidium iodide staining based flow cytometric analysis (reference value: 14%); assay type: functional
HL-60 [8] = assay: Induction of cell cycle arrest in human HL60 cells assessed as accumulation at S phase at 5 uM incubated for 24 to 48 hrs by propidium iodide staining based flow cytometric analysis (reference value: 50%); assay type: functional
HL-60 [9] = assay: Induction of cell cycle arrest in human HL60 cells assessed as accumulation at G0/G1 phase at 10 uM incubated for 24 to 48 hrs by propidium iodide staining based flow cytometric analysis (reference value: 36%); assay type: functional
HL-60 [10] = assay: Induction of cell cycle arrest in human HL60 cells assessed as accumulation at G2/M phase at 10 uM incubated for 24 to 48 hrs by propidium iodide staining based flow cytometric analysis (reference value: 14%); assay type: functional
HL-60 [11] = assay: Induction of cell cycle arrest in human HL60 cells assessed as accumulation at S phase at 10 uM incubated for 24 to 48 hrs by propidium iodide staining based flow cytometric analysis (reference value: 50%); assay type: functional
[12] = molecular target: Myc proto-oncogene protein (Homo sapiens) (UniProt P01106); assay: Inhibition of Myc in human HL60 cells co-transfected with Myc-responsive E-box elements assessed as reduction c-Myc promoter-mediated luciferase expression at 10 to 50 uM after 6 hrs; assay type: cell-based

| Compound | IC50 (HL-60 [1]) [µM] | IC50 (Daudi) [µM] | inhibition (c-Myc/Max (Homo sapiens) [2]) [%] | also measured |
| --- | --- | --- | --- | --- |
| CC(=O)OCOC(=O)c1ccc(Nc2ccc([N+](=O)[O-])c3nonc23)cc1 | 31.9 | 30.7 | – | – |
| CC(C)OC(=O)c1ccc(Nc2ccc([N+](=O)[O-])c3nonc23)cc1 | 9.3 | 3.1 | – | – |
| O=C(OCC(F)(F)F)c1ccc(Nc2ccc([N+](=O)[O-])c3nonc23)cc1 | 8.5 | 1.9 | – | inhibition (c-Myc/Max (Homo sapiens) [4]): Active |
| CCOC(=O)c1ccc(Nc2ccc([N+](=O)[O-])c3nonc23)cc1 | > 25 | 7.4 | – | – |
| O=C(O)c1cc([N+](=O)[O-])ccc1Nc1ccccc1-c1ccccc1 | – | – | 49 | – |
| COC(=O)c1ccc(Nc2ccc([N+](=O)[O-])c3nonc23)c(-c2ccc(C)cc2)c1 | – | – | – | Activity (HL-60 [5]): Dose-dependent effect; Activity (HL-60 [6]): 44%; Activity (HL-60 [7]): 12%; Activity (HL-60 [8]): 44%; Activity (HL-60 [9]): 59.5%; Activity (HL-60 [10]): 17%; Activity (HL-60 [11]): 23%; inhibition [12]: Active |

Second part, led by results:

| IC50 (HL-60 [1]) [µM] | IC50 (Daudi) [µM] | inhibition (c-Myc/Max (Homo sapiens) [2]) [%] | Compound | also measured |
| --- | --- | --- | --- | --- |
| – | – | 38 to 39 | O=[N+]([O-])c1ccc(Nc2ccccc2-c2ccccc2)c2nonc12 | half-life [3]: 37 min |
| – | – | 39 | O=[N+]([O-])c1ccc(Nc2ccccc2Br)c2nonc12 | – |
| 20 | 7.8 | – | COC(=O)c1ccc(Nc2ccc([N+](=O)[O-])c3nonc23)cc1 | – |
| – | – | 20 | O=[N+]([O-])c1ccc(Nc2cccc(-c3ccccc3)c2)c2nonc12 | – |
| 7.2 | 3.5 | – | O=C(OCc1ccccc1)c1ccc(Nc2ccc([N+](=O)[O-])c3nonc23)cc1 | – |
| – | 2.5 to 3.1 | – | O=C(Oc1ccccc1)c1ccc(Nc2ccc([N+](=O)[O-])c3nonc23)cc1 | inhibition (c-Myc/Max (Homo sapiens) [4]): Active; IC50 (c-Myc/Max): 39.7 µM |
| – | – | 93 to 94 | O=C(O)c1ccc(Nc2ccc([N+](=O)[O-])c3nonc23)cc1 | – |
